The values that follow come from patent US9481676B2, “Azepino[4,5-B]indoles and methods of use” (Medivation Technologies, Inc., priority 2008, dated 2016).

Molecules are shown by their SMILES.

T1 sequence (P28223 whole entry): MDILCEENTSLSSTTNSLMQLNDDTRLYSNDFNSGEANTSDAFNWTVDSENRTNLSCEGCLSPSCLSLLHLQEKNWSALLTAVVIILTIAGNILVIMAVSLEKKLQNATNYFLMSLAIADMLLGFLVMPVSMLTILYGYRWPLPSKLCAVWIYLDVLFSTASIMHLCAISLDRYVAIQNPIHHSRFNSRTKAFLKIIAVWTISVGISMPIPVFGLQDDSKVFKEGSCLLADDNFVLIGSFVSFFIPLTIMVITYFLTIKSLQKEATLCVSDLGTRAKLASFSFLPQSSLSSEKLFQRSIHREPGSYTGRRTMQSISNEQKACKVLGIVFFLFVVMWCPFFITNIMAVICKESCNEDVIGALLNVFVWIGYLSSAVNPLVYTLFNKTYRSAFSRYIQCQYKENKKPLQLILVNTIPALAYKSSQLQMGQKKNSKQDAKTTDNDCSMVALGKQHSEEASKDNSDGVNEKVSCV

The experiment addresses T1, human recombinant serotonin (5-Hydroxytryptamine) 5-HT2A receptor (Homo sapiens, UniProt P28223).
T1 construct: expressed in transfected cells; host or cells: CHO-K1 cells
Briefly: Serotonin 5-HT2A radioligand binding ([3H]Ketanserin). The settings on record: compound at 1 μM; read-out: Serotonin (1 μM) 5-HT2A, percent inhibition of specific binding. In outline:
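Percent inhibition of specific [3H]ketanserin (0.5 nM) binding, filtration read-out, with compounds at ≤1 μM (1% DMSO vehicle). Receptor source: recombinant human 5-HT2A in CHO-K1 cells, 50 mM Tris-HCl pH 7.4, 60 min, 25 °C; 1 μM mianserin gives nonspecific binding.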
What is called inhibition is the relative decrease from the control value, in per cent. As for `Cc1ccc2c(c1)c1c(n2CCc2ccc(C(=O)O)nc2)CCN(C)CC1` [Compound No. 11, 5-(2-(2,3,4,5-tetrahydro-3,9-dimethylazepino[4,5-b]indol-6(1H)-yl)ethyl)pyridine-2-carboxylic acid], the inhibition at 1 µM was determined as 5%.

In the case of `CN1CCc2c(n(CC(O)c3ccccc3F)c3ccc(Cl)cc23)CC1` (stereo not drawn) [Compound No. 40, 2-(9-chloro-2,3,4,5-tetrahydro-3-methylazepino[4,5-b]indol-6(1H)-yl)-1-(2-fluorophenyl)ethanol], the inhibition at 1 µM came out at 97%.

In the case of `Cc1ccc2c(c1)c1c(n2CCc2ccncc2)CCN(C)CC1` [Compound No. 6, 1,2,3,4,5,6-hexahydro-3,9-dimethyl-6-(2-(pyridin-4-yl)ethyl)azepino[4,5-b]indole], the inhibition at 1 µM is 96%.

Turning to `Cc1ccc2c(c1)c1c(n2CC(=O)N(C)C2CCCCC2)CCN(C)CC1` [Compound No. 232, N-cyclohexyl-2-(3,9-dimethyl-2,3,4,5-tetrahydroazepino[4,5-b]indol-6(1H)-yl)-N-methylacetamide], the inhibition at 1 µM came to 70%.

As to `Cc1ccc2c(c1)c1c(n2CC(O)c2ccc(F)cc2F)CCN(C)CC1` (stereo not drawn) [Compound No. 59, 1-(2,4-difluorophenyl)-2-(2,3,4,5-tetrahydro-3,9-dimethylazepino[4,5-b]indol-6(1H)-yl)ethanol], the inhibition at 1 µM worked out at 93%.

For `Cc1ccc(C(O)Cn2c3c(c4cc(C)ccc42)CCN(C)CC3)cc1` (stereo not drawn) [Compound No. 27, 2-(2,3,4,5-tetrahydro-3,9-dimethylazepino[4,5-b]indol-6(1H)-yl)-1-p-tolylethanol], the inhibition at 1 µM came out at 99%.

On to `Cc1ccc2c(c1)c1c(n2CC(C)(O)c2ccc(F)cc2)CCN(C)CC1` (stereo not drawn) [Compound No. 14, 2-(4-fluorophenyl)-1-(2,3,4,5-tetrahydro-3,9-dimethylazepino[4,5-b]indol-6(1H)-yl)propan-2-ol], for which the inhibition at 1 µM turned out to be 101%.

As for `Cc1ccc2c(c1)c1c(n2CC(=O)Nc2ccc(F)cc2)CCN(C)CC1` [Compound No. 44, N-(4-fluorophenyl)-2-(2,3,4,5-tetrahydro-3,9-dimethylazepino[4,5-b]indol-6(1H)-yl)acetamide], the inhibition at 1 µM was 17%.

Consider `Cc1ccc2c(c1)c1c(n2CC(=O)NC(C)C)CCN(C)CC1` [Compound No. 54, 2-(2,3,4,5-tetrahydro-3,9-dimethylazepino[4,5-b]indol-6(1H)-yl)-N-isopropylacetamide], for which the inhibition at 1 µM stood at 1%.

On to `Cc1ccc2c(c1)c1c(n2CC(=O)OC2CCCC2)CCN(C)CC1` [Compound No. 55, Cyclopentyl-2-(2,3,4,5-tetrahydro-3,9-dimethylazepino[4,5-b]indol-6(1H)-yl)acetate], for which the inhibition at 1 µM was -2%.

In the case of `Cc1ccc2c(c1)c1c(n2CC(O)c2ccc(C)nc2)CCN(C)CC1` (stereo not drawn) [Compound No. 23, 2-(2,3,4,5-tetrahydro-3,9-dimethylazepino[4,5-b]indol-6(1H)-yl)-1-(6-methylpyridin-3-yl)ethanol], the inhibition at 1 µM stood at 67%.

Take `CN1CCc2c(n(CCc3ccccc3F)c3ccc(Cl)cc23)CC1` [Compound No. 61, 6-(2-fluorophenethyl)-9-chloro-1,2,3,4,5,6-hexahydro-3-methylazepino[4,5-b]indole]: the inhibition at 1 µM came to 43%.

For `C/C(=C\n1c2c(c3cc(Cl)ccc31)CCN(C)CC2)c1ccc(Cl)cc1` [Compound No. 36, 9-chloro-6-((E)-2-(4-chlorophenyl)prop-1-enyl)-1,2,3,4,5,6-hexahydro-3-methylazepino[4,5-b]indole], the inhibition at 1 µM was 97%.

As to `CN1CCc2c(n(CC(O)c3cccnc3)c3ccc(Cl)cc23)CC1` (stereo not drawn) [Compound No. 18, 2-(9-chloro-2,3,4,5-tetrahydro-3-methylazepino[4,5-b]indol-6(1H)-yl)-1-(pyridin-3-yl)ethanol], the inhibition at 1 µM was 88%.

For `Cc1ccc2c(c1)c1c(n2CC(O)c2ccc(Cl)cc2)CCN(C)CC1` (stereo not drawn) [Compound No. 17, 1-(4-chlorophenyl)-2-(2,3,4,5-tetrahydro-3,9-dimethylazepino[4,5-b]indol-6(1H)-yl)ethanol], the inhibition at 1 µM stood at 102%.

Turning to `CN1CCc2c(n(/C=C/c3ccc(F)c(F)c3)c3ccc(Cl)cc23)CC1` [Compound No. 236, (E)-9-chloro-6-(3,4-difluorostyryl)-3-methyl-1,2,3,4,5,6-hexahydroazepino[4,5-b]indole], the inhibition at 1 µM was found to be 101%.

On to `Cc1ccc2c(c1)c1c(n2/C=C/c2ccccc2F)CCN(C)CC1` [Compound No. 233, (E)-6-(2-fluorostyryl)-3,9-dimethyl-1,2,3,4,5,6-hexahydroazepino[4,5-b]indole], for which the inhibition at 1 µM was found to be 102%.

For the compound `CN1CCc2c(n(CC(=O)N3CCCCC3)c3ccc(Cl)cc23)CC1` [Compound No. 57, 2-(9-chloro-2,3,4,5-tetrahydro-3-methylazepino[4,5-b]indol-6(1H)-yl)-1-(piperidin-1-yl)ethanone], the inhibition at 1 µM came out at 10%.

In the case of `Cc1ccc2c(c1)c1c(n2CCc2ccccc2F)CCN(C)CC1` [Compound No. 63, 6-(2-fluorophenethyl)-1,2,3,4,5,6-hexahydro-3,9-dimethylazepino[4,5-b]indole], the inhibition at 1 µM was determined as 91%.

`COc1ccc(C(O)Cn2c3c(c4cc(C)ccc42)CCN(C)CC3)c(F)c1` (stereo not drawn) [Compound No. 50, 1-(2-fluoro-4-methoxyphenyl)-2-(2,3,4,5-tetrahydro-3,9-dimethylazepino[4,5-b]indol-6(1H)-yl)ethanol]: the inhibition at 1 µM worked out at 98%.

Take `Cc1ccc2c(c1)c1c(n2CCc2ccc(C(F)(F)F)nc2)CCN(C)CC1` [Compound No. 20, 6-(2-(6-(trifluoromethyl)pyridin-3-yl)ethyl)-1,2,3,4,5,6-hexahydro-3,9-dimethylazepino[4,5-b]indole]: the inhibition at 1 µM came to 95%.

On to `C/C(=C\n1c2c(c3cc(C)ccc31)CCN(C)CC2)c1ccc(F)cc1` [Compound No. 34, 6-((E)-2-(4-fluorophenyl)prop-1-enyl)-1,2,3,4,5,6-hexahydro-3,9-dimethylazepino[4,5-b]indole], for which the inhibition at 1 µM stood at 98%.

Turning to `Cc1ccc2c(c1)c1c(n2C(=O)Cc2ccc(F)cc2)CCN(C)CC1` [Compound No. 285, 1-(3,9-dimethyl-2,3,4,5-tetrahydroazepino[4,5-b]indol-6(1H)-yl)-2-(4-fluorophenyl) ethanone], the inhibition at 1 µM amounted to 100%.

As to `Cc1ccc2c(c1)c1c(n2CCc2ccccc2)CCN(C)CC1` [Compound No. 62, 1,2,3,4,5,6-hexahydro-3,9-dimethyl-6-phenethylazepino[4,5-b]indole], the inhibition at 1 µM was 12%.

For the compound `Cc1ccc(C(O)Cn2c3c(c4cc(Cl)ccc42)CCN(C)CC3)cn1` (stereo not drawn) [Compound No. 7, 2-(9-chloro-2,3,4,5-tetrahydro-3-methylazepino[4,5-b]indol-6(1H)-yl)-1-(6-methylpyridin-3-yl)ethanol], the inhibition at 1 µM turned out to be 80%.

Consider `CN1CCc2c(n(CC(C)(O)c3ccc(Cl)cc3)c3ccc(Cl)cc23)CC1` (stereo not drawn) [Compound No. 12, 1-(9-chloro-2,3,4,5-tetrahydro-3-methylazepino[4,5-b]indol-6(1H)-yl)-2-(4-chlorophenyl)propan-2-ol], for which the inhibition at 1 µM came to 100%.

As to `CN1CCc2c(n(CCc3cncc(Cl)c3)c3ccc(Cl)cc23)CC1` [Compound No. 10, 9-chloro-6-(2-(5-chloropyridin-3-yl)ethyl)-1,2,3,4,5,6-hexahydro-3-methylazepino[4,5-b]indole], the inhibition at 1 µM was 94%.

As for `CN1CCc2c(n(CC(=O)N3CCNCC3)c3ccc(Cl)cc23)CC1` [Compound No. 72, 2-(9-chloro-2,3,4,5-tetrahydro-3-methylazepino[4,5-b]indol-6(1H)-yl)-1-(piperazin-1-yl)ethanone], the inhibition at 1 µM turned out to be 23%.

Consider `Cc1ccc2c(c1)c1c(n2/C=C/c2ccccc2)CCN(C)CC1` [Compound No. 229, (E)-3,9-dimethyl-6-styryl-1,2,3,4,5,6-hexahydroazepino[4,5-b]indole], for which the inhibition at 1 µM amounted to 100%.

On to `Cc1ccc2c(c1)c1c(n2CC(=O)N2CCCCC2)CCN(C)CC1` [Compound No. 32, 2-(2,3,4,5-tetrahydro-3,9-dimethylazepino[4,5-b]indol-6(1H)-yl)-1-(piperidin-1-yl)ethanone], for which the inhibition at 1 µM stood at 60%.

Regarding `CN1CCc2c(n(CC(O)c3ccc(Cl)cc3)c3ccc(Cl)cc23)CC1` (stereo not drawn) [Compound No. 16, 2-(9-chloro-2,3,4,5-tetrahydro-3-methylazepino[4,5-b]indol-6(1H)-yl)-1-(4-chlorophenyl)ethanol], the inhibition at 1 µM was 101%.

For `COc1ccc(C(O)Cn2c3c(c4cc(C)ccc42)CCN(C)CC3)cc1` (stereo not drawn) [Compound No. 48, 2-(2,3,4,5-tetrahydro-3,9-dimethylazepino[4,5-b]indol-6(1H)-yl)-1-(4-methoxyphenyl) ethanol], the inhibition at 1 µM was 97%.

Consider `Cc1ccc2c(c1)c1c(n2CC(O)c2ccccc2F)CCN(C)CC1` (stereo not drawn) [Compound No. 41, 1-(2-fluorophenyl)-2-(2,3,4,5-tetrahydro-3,9-dimethylazepino[4,5-b]indol-6(1H)-yl)ethanol], for which the inhibition at 1 µM was 99%.

On to `Cc1ccc2c(c1)c1c(n2/C=C/c2ccc(F)cc2)CCN(C)CC1` [Compound No. 39, 6-(4-fluorostyryl)-1,2,3,4,5,6-hexahydro-3,9-dimethylazepino[4,5-b]indole], for which the inhibition at 1 µM is 98%.

In the case of `Cc1ccc2c(c1)c1c(n2CC(C)(O)c2ccc(Cl)cc2)CCN(C)CC1` (stereo not drawn) [Compound No. 15, 2-(4-chlorophenyl)-1-(2,3,4,5-tetrahydro-3,9-dimethylazepino[4,5-b]indol-6(1H)-yl)propan-2-ol], the inhibition at 1 µM worked out at 101%.

In the case of `CN1CCc2c(n(C#Cc3ccc(Cl)cc3)c3ccc(Cl)cc23)CC1` [Compound No. 282, 9-chloro-6-((4-chlorophenyl)ethynyl)-3-methyl-1,2,3,4,5,6-hexahydroazepino[4,5-b]indole], the inhibition at 1 µM stood at 98%.
